# Experimental data: patent US20240199605A1, “SMALL MOLECULAR INHIBITORS OF NF-kB INDUCING KINASE” (Janssen Pharmaceutica NV, priority 2019, published 2024)
# Tests used:
# [1] = target: recombinant human NF-kappaB-inducing kinase (NIK/MAP3K14) (Homo sapiens (Human), UniProt Q99558); test: Inhibition of auto-phosphorylation of recombinant human NIK/MAP3K14 (AlphaScreen); format: biochemical; settings: NIK auto-phosphorylation, 5 μM ATP, 1 nM NIK, 2 h at 25° C.; average of values
# Procedure, shortened: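 GST-tagged NIK (1 nM) auto-phosphorylated with 5 μM ATP for 2 h at 25° C. in 50 mM Tris pH 7.5, 5 mM MgCl2, 1 mM EGTA, 1 mM DTT, 0.1 mM Na3VO4, 0.01% Tween 20 (0.7% DMSO). Detected by AlphaScreen via anti-phospho-IKK Ser176/180 antibody; IC50 from sigmoidal fit of % inhibition versus log concentration.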
# [2] = system: p-IKKα levels in L363 (NIK translocated multiple myeloma) cells; test: Effect of compounds on p-IKKα levels in L363 cells (AlphaLISA SureFire Ultra); format: cell-based, human; settings: Homo sapiens, L-363, 6 h, BAFF stimulated, MG132, 6 h, average of values, read-out: Assay 2 IC50
# Procedure, shortened: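 Inhibition of p-IKKα (Ser176/180) read by AlphaLISA after 6 h, 37 °C compound exposure (11-point 1:3 series, 0.3% DMSO) of L363 cells pre-incubated overnight ± 250 ng/ml BAFF and plated ± BAFF ± 10 μM MG132. Normalised to BAFF/MG132/DMSO and unstimulated controls; IC50 by sigmoidal fitting, duplicates.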
# Chain of recombinant human NF-kappaB-inducing kinase (NIK/MAP3K14) (Q99558 whole entry): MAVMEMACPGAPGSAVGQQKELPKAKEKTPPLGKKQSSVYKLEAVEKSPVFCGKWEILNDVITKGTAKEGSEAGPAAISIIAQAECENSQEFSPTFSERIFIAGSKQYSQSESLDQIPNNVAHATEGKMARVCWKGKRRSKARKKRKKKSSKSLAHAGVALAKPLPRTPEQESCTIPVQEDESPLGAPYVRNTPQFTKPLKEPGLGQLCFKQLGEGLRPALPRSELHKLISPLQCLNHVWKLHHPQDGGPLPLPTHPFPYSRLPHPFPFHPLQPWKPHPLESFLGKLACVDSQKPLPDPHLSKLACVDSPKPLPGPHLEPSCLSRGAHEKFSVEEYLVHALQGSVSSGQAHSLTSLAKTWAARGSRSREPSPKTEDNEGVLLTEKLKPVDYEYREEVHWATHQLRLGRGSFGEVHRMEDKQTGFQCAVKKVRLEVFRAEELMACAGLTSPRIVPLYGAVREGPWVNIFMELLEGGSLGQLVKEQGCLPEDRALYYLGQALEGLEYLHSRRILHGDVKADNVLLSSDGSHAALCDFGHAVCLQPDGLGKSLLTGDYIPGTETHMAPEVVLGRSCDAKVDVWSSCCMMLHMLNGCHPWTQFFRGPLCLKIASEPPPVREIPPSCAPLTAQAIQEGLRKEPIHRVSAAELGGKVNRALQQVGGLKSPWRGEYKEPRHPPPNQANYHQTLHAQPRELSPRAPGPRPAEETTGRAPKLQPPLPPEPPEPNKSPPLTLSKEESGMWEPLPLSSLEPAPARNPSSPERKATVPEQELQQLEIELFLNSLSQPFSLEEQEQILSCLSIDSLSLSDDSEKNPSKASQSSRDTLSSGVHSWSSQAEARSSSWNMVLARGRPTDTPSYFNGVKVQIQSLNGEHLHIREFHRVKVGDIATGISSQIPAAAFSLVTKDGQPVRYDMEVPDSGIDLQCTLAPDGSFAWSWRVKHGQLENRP
SMILES,IC50 [1] [nM],IC50 [2] [nM]
"Cc1c(C#C[C@]2(O)CCN(C)C2=O)cccc1-c1nc2c(N)ncnc2s1 [Example 154, (R)-3-((3-(7-Aminothiazolo[5,4-d]pyrimidin-2-yl)-2-methylphenyl)ethynyl)-3-hydroxy-1-methylpyrrolidin-2-one]",620,> 5000
"Cc1nc(N)c2nc(-c3cccc(C#C[C@@](C)(O)c4nccs4)c3)ccc2n1 [Example 164, (R)-4-(3-(4-Amino-2-methylpyrido[3,2-d]pyrimidin-6-yl)phenyl)-2-(thiazol-2-yl)but-3-yn-2-ol]",0.7,78
"COc1ccc(C#C[C@]2(O)CCN(C)C2=O)cc1-c1ncc2ccnc(N)c2n1 [Example 53, (R)-3-((3-(8-Aminopyrido[3,4-d]pyrimidin-2-yl)-4-methoxyphenyl)ethynyl)-3-hydroxy-1-methylpyrrolidin-2-one]",2,49
"CN1CC[C@@](O)(C#Cc2cccc(-c3nc4c(N)ncnc4n3C)c2)C1=O [Example 143, (R)-3-((3-(6-Amino-9-methyl-9H-purin-8-yl)phenyl)ethynyl)-3-hydroxy-1-methylpyrrolidin-2-one]",420,> 5000
"Cc1nc(N)c2nc(-c3cc(C#C[C@]4(O)CCN(C)C4=O)ccc3OC(F)(F)F)ccc2n1 [Example 237, (R)-3-((3-(4-Amino-2-methylpyrido[3,2-d]pyrimidin-6-yl)-4-(trifluoromethoxy)phenyl)ethynyl)-3-hydroxy-1-methylpyrrolidin-2-one]",9.2,240
"Cc1ccc(C#C[C@]2(O)CCn3ccnc32)cc1-c1ccc2ccnc(N)c2c1 [Example 81, (R)-7-[2-[3-(1-Amino-7-isoquinolyl)-4-methyl-phenyl]ethynyl]-5,6-dihydropyrrolo[1,2-a]imidazol-7-ol]",11,1980
"Cc1cc(C#C[C@]2(O)CCN(C)C2=O)cc(-c2ncc3c(C)cnc(N)c3n2)c1 [Example 76, (R)-3-[2-[3-(8-Amino-5-methyl-pyrido[3,4-d]pyrimidin-2-yl)-5-methyl-phenyl]ethynyl]-3-hydroxy-1-methyl-pyrrolidin-2-one]",2.3,66
"CN1CC[C@@](O)(C#Cc2cccc(-c3nc4c(N)nccc4c(=O)[nH]3)c2)C1=O [Example 55, (R)-8-Amino-2-(3-((3-hydroxy-1-methyl-2-oxopyrrolidin-3-yl)ethynyl)phenyl)pyrido[3,4-d]pyrimidin-4(3H)-one]",≤ 0.5,29
"Cc1cc(C#C[C@]2(O)CCN(C)C2=O)cc(-c2ncc3ccnc(N)c3n2)c1 [Example 42, (R)-3-((3-(8-Aminopyrido[3,4-d]pyrimidin-2-yl)-5-methylphenyl)ethynyl)-3-hydroxy-1-methylpyrrolidin-2-one]",1.3,29
"Cc1cc(-c2cccc(C#C[C@]3(O)CCN(C)C3=O)c2)nc2c(C)ncnc12 [Example 250, (R)-3-((3-(4,8-Dimethylpyrido[3,2-d]pyrimidin-6-yl)phenyl)ethynyl)-3-hydroxy-1-methylpyrrolidin-2-one]",7.9,130
"Cc1cc([C@](C)(O)C#Cc2cccc(-c3ccc4ncnc(N)c4n3)c2)no1 [Example 95, (R)-4-(3-(4-Aminopyrido[3,2-d]pyrimidin-6-yl)phenyl)-2-(5-methylisoxazol-3-yl)but-3-yn-2-ol]",0.8,28
"COCc1nc(N)c2nc(-c3cccc(C#C[C@]4(O)CCN(C)C4=O)c3)ccc2n1 [Example 206, (R)-3-((3-(4-Amino-2-(methoxymethyl)pyrido[3,2-d]pyrimidin-6-yl)phenyl)ethynyl)-3-hydroxy-1-methylpyrrolidin-2-one]",3.5,160
"C[C@@](O)(C#Cc1cccc(-c2nc(C(F)(F)F)c3ccnc(N)c3n2)c1)c1nccs1 [Example 49, (R)-4-(3-(8-Amino-4-(trifluoromethyl)pyrido[3,4-d]pyrimidin-2-yl)phenyl)-2-(thiazol-2-yl)but-3-yn-2-ol]",2.5,130
"CN1CC[C@@](O)(C#Cc2cccc(-c3cc4c(N)ncnc4cn3)c2)C1=O [Example 111, (R)-3-[2-[3-(4-Aminopyrido[3,4-d]pyrimidin-6-yl)phenyl]ethynyl]-3-hydroxy-1-methyl-pyrrolidin-2-one]",1.2,160
"Cc1nc(N)c2nc(-c3cccc(C#C[C@](C)(O)c4cnccn4)c3)ccc2n1 [Example 201, (S)-4-[3-(4-Amino-2-methyl-pyrido[3,2-d]pyrimidin-6-yl)phenyl]-2-pyrazin-2-yl-but-3-yn-2-ol]",4030,> 5000
"CN1CC[C@@](O)(C#Cc2cccc(-c3ccc4ncnc(N5CC(Cl)C5)c4n3)c2)C1=O [Example 244, (R)-3-((3-(4-(3-Chloroazetidin-1-yl)pyrido[3,2-d]pyrimidin-6-yl)phenyl)ethynyl)-3-hydroxy-1-methylpyrrolidin-2-one]",4.9,240
"C[C@@](O)(C#Cc1cccc(-c2ccc3ccnc(N)c3n2)c1)c1nccs1 [Example 90, (R)-4-[3-(8-Amino-1,7-naphthyridin-2-yl)phenyl]-2-thiazol-2-yl-but-3-yn-2-ol]",≤ 0.5,70
"Cc1ncc(C#N)c2ccc(-c3cccc(C#C[C@]4(O)CCN(C)C4=O)c3)nc12 [Example 251, (R)-2-(3-((3-Hydroxy-1-methyl-2-oxopyrrolidin-3-yl)ethynyl)phenyl)-8-methyl-1,7-naphthyridine-5-carbonitrile]",86,560
"CN1CC[C@@](O)(C#Cc2cccc(-c3ncc4c(-c5ccc(C(F)(F)F)nc5)cnc(N)c4n3)c2)C1=O [Example 147, (R)-3-[2-[3-[8-Amino-5-[6-(trifluoromethyl)-3-pyridyl]pyrido[3,4-d]pyrimidin-2-yl]phenyl]ethynyl]-3-hydroxy-1-methyl-pyrrolidin-2-one]",≤ 0.5,14
"Cc1nc(-c2cccc(C#C[C@]3(O)CCN(CC(F)(F)F)C3=O)c2)nc2c(N)nccc12 [Example 92, (R)-3-[2-[3-(8-Amino-4-methyl-pyrido[3,4-d]pyrimidin-2-yl)phenyl]ethynyl]-3-hydroxy-1-(2,2,2-trifluoroethyl)pyrrolidin-2-one]",6.6,480
"CN1CC[C@@](O)(C#Cc2cccc(-c3ccc4[nH]nc(N)c4n3)c2)C1=O [Example 22, (R)-3-[2-[3-(3-Amino-1H-pyrazolo[4,3-b]pyridin-5-yl)phenyl]ethynyl]-3-hydroxy-1-methyl-pyrrolidin-2-one]",4.3,480
"Cc1ncnc2ccc(-c3cccc(C#C[C@]4(O)CCN(C)C4=O)c3)nc12 [Example 23, (R)-3-Hydroxy-1-methyl-3-((3-(4-methylpyrido[3,2-d]pyrimidin-6-yl)phenyl)ethynyl)pyrrolidin-2-one]",10,260
"CN1CC[C@@](O)(C#Cc2cccc(-c3ncc4c(-c5cnn(CCN)c5)cnc(N)c4n3)c2)C1=O [Example 134, (R)-3-[2-[3-[8-Amino-5-[1-(2-aminoethyl)pyrazol-4-yl]pyrido[3,4-d]pyrimidin-2-yl]phenyl]ethynyl]-3-hydroxy-1-methyl-pyrrolidin-2-one]",≤ 0.5,150
